Results reported in ChEMBL document CHEMBL1151616, “Na+-K+-ATPase inhibitors from Lysimachia japonica” (J Nat Prod, 1984).

Assay: Inhibition of Na+K+ATpase from pig cortex
Parameters: species or system Sus scrofa

C[C@@H]1O[C@@H](O[C@H]2C[C@@H](O)[C@]3(CO)[C@H]4[C@H](O)C[C@]5(C)[C@@H](C6=CC(=O)OC6)CC[C@]5(O)[C@@H]4CC[C@]3(O)C2)[C@H](O)[C@H](O)[C@H]1O [OUABAIN]
IC50: 0.6 µM
